Measurements as given in patent US9833497B2, “Human originated EGF domain proteins and use of the same” (CHENGDU SOURCEBIO LIMITED-LIABILITY COMPANY, priority 2013, dated 2017).

Legend:
Assay type in all cases: cell-based
E. coli BL21 = test: MIC against Gram-negative bacteria: E. coli BL21; conditions: 5×10^5 CFU/mL
In short: (§1)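 The recombinant human-originated EGF domain proteins were serially diluted two-fold against bacteria at 5×10^5 CFU/mL in LB medium. After shaken incubation at 37° C, the lowest concentration with no bacterial growth was recorded as the MIC.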

Serratia marcescens = test: MIC against Gram-negative bacteria: Serratia marcescens; conditions: 5×10^5 CFU/mL
In short: as §1

Proteus vulgaris = test: MIC against Gram-negative bacteria: Proteus vulgaris; conditions: 5×10^5 CFU/mL
In short: as §1

Klebsiella pneumonia = test: MIC against Gram-negative bacteria: Klebsiella pneumonia; conditions: 5×10^5 CFU/mL
In short: as §1

Citrobacter diversus = test: MIC against Gram-negative bacteria: Citrobacter diversus; conditions: 5×10^5 CFU/mL
In short: as §1

Enterobacter cloacae = test: MIC against Gram-negative bacteria: Enterobacter cloacae; conditions: 5×10^5 CFU/mL
In short: as §1

Aeromonas hydrophila = test: MIC against Gram-negative bacteria: Aeromonas hydrophila; conditions: 5×10^5 CFU/mL
In short: as §1

E. coli DH5α = test: Antibacterial activity: MIC and growth curve against E. coli DH5α in 96-well plate; conditions: minimal inhibitory concentration against E. coli DH5α; 96-well plate, 5×10^5 CFU/mL, 37° C., judged after 8 h
In short: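 MIC taken as lowest protein level with no bacterial growth, tracked by A600 every 30 min during 37 °C, 175 rpm culture. Two-fold protein series 50-12.5 μg/mL final, triplicate wells, against 5×10^5 CFU/mL of LB-washed mid-log cells.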

Pseudomonas aeruginosa = test: MIC against Gram-negative bacteria: Pseudomonas aeruginosa; conditions: 5×10^5 CFU/mL
In short: as §1

Proteus mirabilis = test: MIC against Gram-negative bacteria: Proteus mirabilis; conditions: 5×10^5 CFU/mL
In short: as §1

Moraxella catarrhalis = test: MIC against Gram-negative bacteria: Moraxella catarrhalis; conditions: 5×10^5 CFU/mL
In short: as §1

[1] = E. coli BL21, 96-well plate, 37° C., 10 h
[2] = Serratia marcescens, 96-well plate, 37° C., 10 h
[3] = Proteus vulgaris, 96-well plate, 37° C., 10 h
[4] = Klebsiella pneumonia, 96-well plate, 37° C., 10 h
[5] = Citrobacter diversus, 96-well plate, 37° C., 10 h
[6] = Enterobacter cloacae, 96-well plate, 37° C., 10 h
[7] = Aeromonas hydrophila, 96-well plate, 37° C., 10 h
[8] = Pseudomonas aeruginosa, 96-well plate, 37° C., 10 h
[9] = Proteus mirabilis, 96-well plate, 37° C., 10 h
[10] = Moraxella catarrhalis, 96-well plate, 37° C., 10 h
[11] = E. coli BL21, 10 h cultivation at 37° C.
[12] = Serratia marcescens, 10 h cultivation at 37° C.
[13] = Proteus vulgaris, 10 h cultivation at 37° C.
[14] = Klebsiella pneumonia, 10 h cultivation at 37° C.
[15] = Citrobacter diversus, 10 h cultivation at 37° C.
[16] = Enterobacter cloacae, 10 h cultivation at 37° C.
[17] = Aeromonas hydrophila, 10 h cultivation at 37° C.
[18] = Pseudomonas aeruginosa, 10 h cultivation at 37° C.
[19] = Proteus mirabilis, 10 h cultivation at 37° C.
[20] = Moraxella catarrhalis, 10 h cultivation at 37° C.

| Substance | MIC against E. coli BL21 (E. coli BL21; [1]) | MIC against S. marcescens (Serratia marcescens; [2]) | MIC against P. vulgaris (Proteus vulgaris; [3]) | MIC against K. pneumonia (Klebsiella pneumonia; [4]) | MIC against C. diversus (Citrobacter diversus; [5]) | MIC against E. cloacae (Enterobacter cloacae; [6]) | MIC against A. hydrophila (Aeromonas hydrophila; [7]) | MIC (E. coli DH5α) | MIC against P. aeruginosa (Pseudomonas aeruginosa; [8]) | MIC against P. mirabilis (Proteus mirabilis; [9]) | MIC against M. catarrhalis (Moraxella catarrhalis; [10]) | MIC against E. coli BL21 (E. coli BL21; [11]) | MIC against S. marcescens (Serratia marcescens; [12]) | MIC against P. vulgaris (Proteus vulgaris; [13]) | MIC against K. pneumonia (Klebsiella pneumonia; [14]) | MIC against C. diversus (Citrobacter diversus; [15]) | MIC against E. cloacae (Enterobacter cloacae; [16]) | MIC against A. hydrophila (Aeromonas hydrophila; [17]) | MIC against P. aeruginosa (Pseudomonas aeruginosa; [18]) | MIC against P. mirabilis (Proteus mirabilis; [19]) | other results |
| --- | --- | --- | --- | --- | --- | --- | --- | --- | --- | --- | --- | --- | --- | --- | --- | --- | --- | --- | --- | --- | --- |
| PRT1296 (GCEPCHKKVCAHGTCQPSSQAGFTCECQEGWMGPLCD; listed as Homo sapiens) | 12.5 µg/mL | 25 µg/mL | 50 µg/mL | 50 µg/mL | 50 µg/mL | 25 µg/mL | 100 µg/mL | 50 µg/mL | 25 µg/mL | 25 µg/mL | 12.5 µg/mL |  |  |  |  |  |  |  |  |  |  |
| PRT1467 (QPQDCPPSTCLNGGTCHLGTRHHLACLCPEGFTGLYCE; listed as Homo sapiens) |  |  |  |  |  |  |  | 25 µg/mL |  |  |  | 50 µg/mL | 12.5 µg/mL | 25 µg/mL | 12.5 µg/mL | 12.5 µg/mL | 50 µg/mL | 25 µg/mL | 25 µg/mL | 50 µg/mL | MIC against M. catarrhalis (Moraxella catarrhalis; [20]): 25 µg/mL |
| PRT1413 (PTNQCIDVACSNHGTCITGTCICNPGYKGESCE; listed as Homo sapiens) |  |  |  |  |  |  |  | 12.5 µg/mL |  |  |  | 25 µg/mL | 12.5 µg/mL | 25 µg/mL | 25 µg/mL | 50 µg/mL | 12.5 µg/mL | 25 µg/mL | 50 µg/mL | 50 µg/mL | MIC against M. catarrhalis (Moraxella catarrhalis; [20]): 12.5 µg/mL |
| PRT1216 (YPDACKRSPCQHGGSCTGLPSGGYQCTCLSQFTGRNCE; listed as Homo sapiens) | 12.5 µg/mL | 12.5 µg/mL | 25 µg/mL | 12.5 µg/mL | 50 µg/mL | 25 µg/mL | 25 µg/mL | 50 µg/mL | 50 µg/mL | 50 µg/mL | 12.5 µg/mL |  |  |  |  |  |  |  |  |  |  |
| PRT553 (CQCPGGRCDPHTGRCNCPPGLSGERCDTCSQQHQVPVPGGPVGHSIHCEV; listed as Homo sapiens) |  |  |  |  |  |  |  | 25 µg/mL |  |  |  |  |  |  |  |  |  |  |  |  | MIC against E. coli BL21 (E. coli BL21; 96-well plate, 37° C., 10 h): 50 µg/mL; MIC against S. marcescens (Serratia marcescens; 96-well plate, 37° C., 10 h): 25 µg/mL; MIC against P. vulgaris (Proteus vulgaris; 96-well plate, 37° C., 10 h): 50 µg/mL; MIC against K. pneumonia (Klebsiella pneumonia; 96-well plate, 37° C., 10 h): 12.5 µg/mL; MIC against C. diversus (Citrobacter diversus; 96-well plate, 37° C., 10 h): 25 µg/mL; MIC against E. cloacae (Enterobacter cloacae; 96-well plate, 37° C., 10 h): 25 µg/mL; MIC against A. hydrophila (Aeromonas hydrophila; 96-well plate, 37° C., 10 h): 50 µg/mL; MIC against P. aeruginosa (Pseudomonas aeruginosa; 96-well plate, 37° C., 10 h): 25 µg/mL; MIC against P. mirabilis (Proteus mirabilis; 96-well plate, 37° C., 10 h): 25 µg/mL; MIC against M. catarrhalis (Moraxella catarrhalis; 96-well plate, 37° C., 10 h): 12.5 µg/mL |
| PRT764 (AQDKCALGTHGCQHICVNDRTGSHHCECYEGYTLNADKKTCS; listed as Homo sapiens) |  |  |  |  |  |  |  | 12.5 µg/mL |  |  |  |  |  |  |  |  |  |  |  |  | MIC (μg/mL) E. coli BL21 (E. coli BL21; [11]): 25 µg/mL; MIC (μg/mL) S. marcescens (Serratia marcescens; S. marcescens, 10 h cultivation at 37° C.): 50 µg/mL; MIC (μg/mL) P. vulgaris (Proteus vulgaris; P. vulgaris, 10 h cultivation at 37° C.): 25 µg/mL; MIC (μg/mL) K. pneumonia (Klebsiella pneumonia; K. pneumonia, 10 h cultivation at 37° C.): 100 µg/mL; MIC (μg/mL) C. diversus (Citrobacter diversus; C. diversus, 10 h cultivation at 37° C.): 50 µg/mL; MIC (μg/mL) E. cloacae (Enterobacter cloacae; E. cloacae, 10 h cultivation at 37° C.): 50 µg/mL; MIC (μg/mL) A. hydrophila (Aeromonas hydrophila; A. hydrophila, 10 h cultivation at 37° C.): 12.5 µg/mL; MIC (μg/mL) P. aeruginosa (Pseudomonas aeruginosa; P. aeruginosa, 10 h cultivation at 37° C.): 50 µg/mL; MIC (μg/mL) P. mirabilis (Proteus mirabilis; P. mirabilis, 10 h cultivation at 37° C.): 25 µg/mL; MIC (μg/mL) M. catarrhalis (Moraxella catarrhalis; M. catarrhalis, 10 h cultivation at 37° C.): 12.5 µg/mL |
